Reference: patent US10770169B2, “Method of providing a treatment to a subject based on a dynamic pathway map” (THE REGENTS OF THE UNIVERSITY OF CALIFORNIA, priority 2010, dated 2020)

System: panel of 55 breast cancer cell lines
Experiment: Cell growth inhibition assay (Cell Titer Glo, 72 h, 9 doses; GI50, TGI, LC50)
Format: cell-based, human
Settings: value is the negative log10 of mol/L

CNC(=O)c1c(F)cccc1Nc1nc(Nc2cc3c(cc2OC)CCN3C(=O)CN(C)C)nc2[nH]ccc12 [GSK1838705A]
GI50 (600MPE cell line, censored GI50 values): 6.49
GI50 (AU565 cell line, censored GI50 values): 5.63
GI50 (BT20 cell line, censored GI50 values): 4.63
GI50 (BT474 cell line, censored GI50 values): 5.08
GI50 (BT483 cell line, censored GI50 values): 5.52
GI50 (BT549 cell line, censored GI50 values): 5.21
GI50 (CAMA1 cell line, censored GI50 values): 5.05
GI50 (HCC38 cell line, censored GI50 values): 5.00
GI50 (HCC70 cell line, censored GI50 values): 5.18
GI50 (HCC202 cell line, censored GI50 values): 5.11
GI50 (HCC1143 cell line, censored GI50 values): 5.55
GI50 (HCC1187 cell line, censored GI50 values): 5.61
GI50 (HCC1395 cell line, censored GI50 values): 5.28
GI50 (HCC1419 cell line, censored GI50 values): 5.21
GI50 (HCC1428 cell line, censored GI50 values): 5.79
GI50 (HCC1500 cell line, censored GI50 values): 5.02
GI50 (HCC1806 cell line, censored GI50 values): 4.27
GI50 (HCC1937 cell line, censored GI50 values): 4.71
GI50 (HCC1954 cell line, censored GI50 values): 5.08
GI50 (HCC2185 cell line, censored GI50 values): 5.54
GI50 (HCC3153 cell line, censored GI50 values): 5.26
GI50 (LY2 cell line, censored GI50 values): 6.26
GI50 (MCF7 cell line, censored GI50 values): 5.89
GI50 (MDAMB134VI cell line, censored GI50 values): 5.06
GI50 (MDAMB157 cell line, censored GI50 values): 5.05
GI50 (MDAMB175VII cell line, censored GI50 values): 5.30
GI50 (MDAMB231 cell line, censored GI50 values): 5.28
GI50 (MDAMB361 cell line, censored GI50 values): 5.04
GI50 (MDAMB415 cell line, censored GI50 values): 5.37
GI50 (MDAMB436 cell line, censored GI50 values): 5.00
GI50 (MDAMB453 cell line, censored GI50 values): 5.07
GI50 (MDAMB468 cell line, censored GI50 values): 5.29
GI50 (SKBR3 cell line, censored GI50 values): 5.16
GI50 (SUM149PT cell line, censored GI50 values): 5.41
GI50 (SUM159PT cell line, censored GI50 values): 5.46
GI50 (SUM185PE cell line, censored GI50 values): 5.48
GI50 (SUM225CWN cell line, censored GI50 values): 4.89
GI50 (SUM1315MO2 cell line, censored GI50 values): 5.33
GI50 (cell line 600MPE): 6.49
GI50 (cell line AU565): 5.63
GI50 (cell line BT20): 4.63

COc1ncc(-c2ccc3nccc(-c4ccnnc4)c3c2)cc1NS(=O)(=O)c1ccc(F)cc1F [GSK2126458A]
GI50 (cell line 600MPE, censored GI50 values): 8.22
GI50 (cell line 600MPE): 8.22
GI50 (cell line AU565, censored GI50 values): 8.10
GI50 (cell line AU565): 8.10
GI50 (cell line BT20, censored GI50 values): 7.80
GI50 (cell line BT20): 7.80
GI50 (cell line BT474, censored GI50 values): 8.36
GI50 (cell line BT483, censored GI50 values): 8.94
GI50 (cell line BT549, censored GI50 values): 7.32
GI50 (cell line CAMA1, censored GI50 values): 6.97
GI50 (cell line HCC38, censored GI50 values): 7.62
GI50 (cell line HCC70, censored GI50 values): 8.13
GI50 (cell line HCC202, censored GI50 values): 9.03
GI50 (cell line HCC1143, censored GI50 values): 7.43
GI50 (cell line HCC1187, censored GI50 values): 8.30
GI50 (cell line HCC1395, censored GI50 values): 7.31
GI50 (cell line HCC1419, censored GI50 values): 8.75
GI50 (cell line HCC1428, censored GI50 values): 7.48
GI50 (cell line HCC1500, censored GI50 values): 7.11
GI50 (cell line HCC1806, censored GI50 values): 7.54
GI50 (cell line HCC1937, censored GI50 values): 7.57
GI50 (cell line HCC1954, censored GI50 values): 7.97
GI50 (cell line HCC3153, censored GI50 values): 7.36
GI50 (cell line LY2, censored GI50 values): 7.93
GI50 (cell line MCF7, censored GI50 values): 8.14
GI50 (cell line MDAMB134VI, censored GI50 values): 7.95
GI50 (cell line MDAMB157, censored GI50 values): 6.49
GI50 (cell line MDAMB175VII, censored GI50 values): 8.29
GI50 (cell line MDAMB231, censored GI50 values): 5.57
GI50 (cell line MDAMB361, censored GI50 values): 7.46
GI50 (cell line MDAMB436, censored GI50 values): 6.75
GI50 (cell line MDAMB453, censored GI50 values): 8.28
GI50 (cell line MDAMB468, censored GI50 values): 7.47
GI50 (cell line SKBR3, censored GI50 values): 8.41
GI50 (cell line SUM52PE, censored GI50 values): 8.46
GI50 (cell line SUM149PT, censored GI50 values): 7.64
GI50 (cell line SUM159PT, censored GI50 values): 7.52
GI50 (cell line SUM1315MO2, censored GI50 values): 8.02
GI50 (cell line T47D, censored GI50 values): 8.45
GI50 (cell line UACC812, censored GI50 values): 8.67
GI50 (cell line UACC893, censored GI50 values): 8.22
GI50 (cell line ZR75B, censored GI50 values): 8.31
GI50 (cell line ZR751, censored GI50 values): 8.07
